Measured values: PubChem BioAssay AID248 (DTP/NCI, 2004)
“And” between values parts separate entries of the source, which are not always exact repeats. Identical values can stand only once. Inconclusive results and toxic doses are left out. No stated cut-off is given here; in the data, active means T/C of 150% or more; inactive means T/C below 125%.

System: L1210 leukemia ip in BDF1 mice, survival T/C
Test: NCI In Vivo Anticancer Drug Screen. Data for tumor model L1210 Leukemia (intraperitoneal) in B6D2F1 (BDF1) mice
Conditions: higher = longer survival
Procedure, shortened: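 Read-out is survival time, reported as the treated-group measurement over the vehicle-control measurement.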

Measured: T/C

CO[C@H](C(=O)[C@@H](O)[C@@H](C)O)[C@@H]1Cc2cc3cc(OC4CC(OC5CC(O)C(O)C(C)O5)C(O)C(C)O4)c(C)c(O)c3c(O)c2C(=O)[C@H]1OC1CC(OC2CC(OC3CC(C)(O)C(O)C(C)O3)C(O)C(C)O2)C(O)C(C)O1 (stereo not given in full)
inactive: endpoint: mean survival time, dose: 0.13 mg/kg/injection, schedule: Q01DX001 (iv), vehicle: water 86 % of control | endpoint: mean survival time, dose: 0.15 mg/kg/injection, schedule: Q01DX015 (ip), vehicle: saline 93 % of control | endpoint: mean survival time, dose: 0.25 mg/kg/injection, schedule: Q01DX001 (ip), vehicle: water 104 % of control | endpoint: mean survival time, dose: 0.25 mg/kg/injection, schedule: Q01DX001 (iv), vehicle: water 96 % of control | endpoint: mean survival time, dose: 0.25 mg/kg/injection, schedule: Q01DX Z (ip), vehicle: saline 98 % of control | endpoint: mean survival time, dose: 0.31 mg/kg/injection, schedule: Q01DX015 (ip), vehicle: saline 104 % of control | endpoint: mean survival time, dose: 0.37 mg/kg/injection, schedule: Q01DX001 (ip), vehicle: water 98 % of control | endpoint: mean survival time, dose: 0.5 mg/kg/injection, schedule: Q01DX001 (ip), vehicle: saline 98 % of control and 101 % of control | endpoint: mean survival time, dose: 0.5 mg/kg/injection, schedule: Q01DX001 (ip), vehicle: water 95 % of control and 97 % of control | endpoint: mean survival time, dose: 0.5 mg/kg/injection, schedule: Q01DX001 (iv), vehicle: water 100 % of control | endpoint: mean survival time, dose: 0.5 mg/kg/injection, schedule: Q01DX Z (ip), vehicle: saline 107 % of control | endpoint: mean survival time, dose: 0.62 mg/kg/injection, schedule: Q01DX015 (ip), vehicle: saline 102 % of control | endpoint: mean survival time, dose: 1.0 mg/kg/injection, schedule: Q01DX001 (ip), vehicle: saline 97 % of control | endpoint: mean survival time, dose: 1.0 mg/kg/injection, schedule: Q01DX Z (ip), vehicle: saline 103 % of control | endpoint: mean survival time, dose: 1.25 mg/kg/injection, schedule: Q01DX001 (ip), vehicle: saline 109 % of control | endpoint: mean survival time, dose: 1.25 mg/kg/injection, schedule: Q01DX015 (ip), vehicle: saline 96 % of control | endpoint: mean survival time, dose: 2.0 mg/kg/injection, schedule: Q01DX001 (ip), vehicle: saline 101 % of control | endpoint: mean survival time, dose: 2.5 mg/kg/injection, schedule: Q01DX001 (ip), vehicle: saline 109 % of control | endpoint: mean survival time, dose: 10.0 mg/kg/injection, schedule: Q01DX001 (ip), vehicle: saline 91 % of control | endpoint: mean survival time, dose: 1.5 micrograms/kg/injection, schedule: Q01DX009 (ip), vehicle: saline 101 % of control and 114 % of control | endpoint: mean survival time, dose: 3.0 micrograms/kg/injection, schedule: Q01DX009 (ip), vehicle: saline 100 % of control and 104 % of control | endpoint: mean survival time, dose: 6.0 micrograms/kg/injection, schedule: Q01DX009 (ip), vehicle: saline 95 % of control and 97 % of control | endpoint: mean survival time, dose: 12.0 micrograms/kg/injection, schedule: Q01DX009 (ip), vehicle: saline 94 % of control and 95 % of control | endpoint: mean survival time, dose: 12.0 micrograms/kg/injection, schedule: Q04DX002 (ip), vehicle: saline 97 % of control and 108 % of control | endpoint: mean survival time, dose: 22.0 micrograms/kg/injection, schedule: Q01DX Z (ip), vehicle: water 97 % of control | endpoint: mean survival time, dose: 22.0 micrograms/kg/injection, schedule: Q02DX Z (ip), vehicle: water 88 % of control | endpoint: mean survival time, dose: 23.0 micrograms/kg/injection, schedule: Q04DX002 (ip), vehicle: saline 101 % of control and 90 % of control | endpoint: mean survival time, dose: 25.0 micrograms/kg/injection, schedule: Q01DX009 (ip), vehicle: saline 99 % of control and 100 % of control | endpoint: mean survival time, dose: 33.0 micrograms/kg/injection, schedule: Q01DX Z (ip), vehicle: water 91 % of control | endpoint: mean survival time, dose: 33.0 micrograms/kg/injection, schedule: Q02DX Z (ip), vehicle: water 96 % of control | endpoint: mean survival time, dose: 45.0 micrograms/kg/injection, schedule: Q04DX002 (ip), vehicle: saline 94 % of control and 103 % of control | endpoint: mean survival time, dose: 50.0 micrograms/kg/injection, schedule: Q01DX009 (ip), vehicle: saline 103 % of control and 110 % of control | endpoint: mean survival time, dose: 50.0 micrograms/kg/injection, schedule: Q01DX Z (ip), vehicle: water 88 % of control | endpoint: mean survival time, dose: 50.0 micrograms/kg/injection, schedule: Q02DX Z (ip), vehicle: water 91 % of control | endpoint: mean survival time, dose: 62.5 micrograms/kg/injection, schedule: Q01DX Z (ip), vehicle: saline 97 % of control | endpoint: mean survival time, dose: 75.0 micrograms/kg/injection, schedule: Q01DX Z (ip), vehicle: water 91 % of control | endpoint: mean survival time, dose: 75.0 micrograms/kg/injection, schedule: Q02DX Z (ip), vehicle: water 97 % of control | endpoint: mean survival time, dose: 90.0 micrograms/kg/injection, schedule: Q04DX002 (ip), vehicle: saline 100 % of control and 106 % of control | endpoint: mean survival time, dose: 125.0 micrograms/kg/injection, schedule: Q01DX009 (ip), vehicle: clinical formulation 103 % of control | endpoint: mean survival time, dose: 125.0 micrograms/kg/injection, schedule: Q01DX009 (ip), vehicle: saline 105 % of control | endpoint: mean survival time, dose: 125.0 micrograms/kg/injection, schedule: Q01DX Z (ip), vehicle: saline 107 % of control | endpoint: mean survival time, dose: 190.0 micrograms/kg/injection, schedule: Q04DX002 (ip), vehicle: saline 87 % of control and 90 % of control | endpoint: mean survival time, dose: 250.0 micrograms/kg/injection, schedule: Q01DX009 (ip), vehicle: clinical formulation 103 % of control | endpoint: mean survival time, dose: 250.0 micrograms/kg/injection, schedule: Q01DX009 (ip), vehicle: saline 107 % of control | endpoint: mean survival time, dose: 250.0 micrograms/kg/injection, schedule: Q01DX Z (ip), vehicle: saline 109 % of control | endpoint: mean survival time, dose: 370.0 micrograms/kg/injection, schedule: Q04DX002 (ip), vehicle: saline 97 % of control and 103 % of control | endpoint: mean survival time, dose: 375.0 micrograms/kg/injection, schedule: Q01DX009 (ip), vehicle: saline 108 % of control | endpoint: mean survival time, dose: 500.0 micrograms/kg/injection, schedule: Q01DX009 (ip), vehicle: clinical formulation 108 % of control | endpoint: mean survival time, dose: 500.0 micrograms/kg/injection, schedule: Q01DX009 (ip), vehicle: saline 113 % of control | endpoint: mean survival time, dose: 500.0 micrograms/kg/injection, schedule: Q01DX Z (ip), vehicle: saline 113 % of control | endpoint: mean survival time, dose: 750.0 micrograms/kg/injection, schedule: Q01DX009 (ip), vehicle: saline 108 % of control | endpoint: mean survival time, dose: 1000.0 micrograms/kg/injection, schedule: Q01DX009 (ip), vehicle: clinical formulation 109 % of control | endpoint: mean survival time, dose: 1000.0 micrograms/kg/injection, schedule: Q01DX009 (ip), vehicle: saline 114 % of control | endpoint: mean survival time, dose: 1500.0 micrograms/kg/injection, schedule: Q01DX009 (ip), vehicle: saline 108 % of control | endpoint: mean survival time, dose: 3000.0 micrograms/kg/injection, schedule: Q01DX009 (ip), vehicle: saline 113 % of control | endpoint: median survival time, dose: 0.25 mg/kg/injection, schedule: Q01DX009 (ip), vehicle: saline 100 % of control and 111 % of control | endpoint: median survival time, dose: 0.5 mg/kg/injection, schedule: Q01DX009 (ip), vehicle: saline 106 % of control and 122 % of control

N=C(CNC(=O)OCc1ccccc1)N1CCCC1C(=O)O (stereo not given)
inactive: endpoint: mean survival time, dose: 100.0 mg/kg/injection, schedule: Q04DX003 (ip), vehicle: saline with Tween-80 100 % of control | endpoint: mean survival time, dose: 200.0 mg/kg/injection, schedule: Q04DX003 (ip), vehicle: saline with Tween-80 101 % of control | endpoint: mean survival time, dose: 400.0 mg/kg/injection, schedule: Q04DX003 (ip), vehicle: saline with Tween-80 101 % of control

CCCC[CH2][Sn]([CH2]CCCC)[CH2]CCCC.CCCC[CH2][Sn]([CH2]CCCC)[CH2]CCCC
inactive: endpoint: mean survival time, dose: 100.0 mg/kg/injection, schedule: Q04DX002 (sc), vehicle: olive oil, sesame oil, peanut oil 115 % of control | endpoint: mean survival time, dose: 200.0 mg/kg/injection, schedule: Q04DX002 (sc), vehicle: olive oil, sesame oil, peanut oil 99 % of control | endpoint: mean survival time, dose: 400.0 mg/kg/injection, schedule: Q04DX002 (sc), vehicle: olive oil, sesame oil, peanut oil 105 % of control

O=C(Nc1ccccc1)N(O)c1ccccc1
inactive: endpoint: mean survival time, dose: 9.0 mg/kg/injection, schedule: Q01DX015 (ip), vehicle: methylcellulose (MC) 97 % of control | endpoint: mean survival time, dose: 18.0 mg/kg/injection, schedule: Q01DX015 (ip), vehicle: methylcellulose (MC) 97 % of control | endpoint: mean survival time, dose: 25.0 mg/kg/injection, schedule: Q01DX015 (ip), vehicle: methylcellulose (MC) 112 % of control | endpoint: mean survival time, dose: 37.5 mg/kg/injection, schedule: Q01DX015 (ip), vehicle: methylcellulose (MC) 95 % of control | endpoint: mean survival time, dose: 50.0 mg/kg/injection, schedule: Q01DX015 (ip), vehicle: methylcellulose (MC) 103 % of control | endpoint: mean survival time, dose: 100.0 mg/kg/injection, schedule: Q01DX015 (ip), vehicle: methylcellulose (MC) 103 % of control | endpoint: mean survival time, dose: 200.0 mg/kg/injection, schedule: Q01DX015 (ip), vehicle: methylcellulose (MC) 101 % of control
